Laboratory results as given in the supplement of paper PMC10307832.

Columns and labels:
Experiment in all cases: relative viability (nuclei count vs DMSO), 5 days (fraction); higher = more cells survive
17-AAG + Trametinib = compound: C=CCNC1=C2C[C@@H](C)C[C@H](OC)[C@H](O)[C@@H](C)/C=C(\C)[C@H](OC(N)=O)[C@@H](OC)/C=C\C=C(/C)C(=O)NC(=CC1=O)C2=O [17-AAG] + CC(=O)Nc1cccc(-n2c(=O)n(C3CC3)c(=O)c3c(Nc4ccc(I)cc4F)n(C)c(=O)c(C)c32)c1 [Trametinib] (partner 0.02 µM)
Procedure, shortened: (§1)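 Nuclei were stained with Hoechst during a one-step fixation (final 0.05% Triton X-100, 1% formaldehyde, 1 ug/ml Hoechst) carried out 5 days after dosing, then counted on 4× images. The cells, lung cancer lines in 1536-well plates, had been dosed by pin tool the day after seeding with one drug alone or a fixed anchor-drug dose plus five library-drug doses (not always all listed) in √10 steps. Relative viability is the nuclei count in treated wells divided by that in vehicle wells, and each value is the median of duplicate plates.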

17-AAG + OSI-027 = compound: C=CCNC1=C2C[C@@H](C)C[C@H](OC)[C@H](O)[C@@H](C)/C=C(\C)[C@H](OC(N)=O)[C@@H](OC)/C=C\C=C(/C)C(=O)NC(=CC1=O)C2=O [17-AAG] + COc1cccc2cc(-c3nc([C@H]4CC[C@H](C(=O)O)CC4)n4ncnc(N)c34)[nH]c12 [OSI-027] (partner 0.5 µM)
Procedure, shortened: as §1

17-AAG + Crizotinib = compound: C=CCNC1=C2C[C@@H](C)C[C@H](OC)[C@H](O)[C@@H](C)/C=C(\C)[C@H](OC(N)=O)[C@@H](OC)/C=C\C=C(/C)C(=O)NC(=CC1=O)C2=O [17-AAG] + C[C@@H](Oc1cc(-c2cnn(C3CCNCC3)c2)cnc1N)c1c(Cl)ccc(F)c1Cl [Crizotinib] (partner 1 µM)
Procedure, shortened: as §1

17-AAG + Phenformin = compound: C=CCNC1=C2C[C@@H](C)C[C@H](OC)[C@H](O)[C@@H](C)/C=C(\C)[C@H](OC(N)=O)[C@@H](OC)/C=C\C=C(/C)C(=O)NC(=CC1=O)C2=O [17-AAG] + N=C(N)NC(=N)NCCc1ccccc1 [Phenformin] (partner 250 µM)
Procedure, shortened: as §1

| Cell Line | relative viability (17-AAG + Trametinib; first compound 0.00128 µM) | relative viability (17-AAG + Trametinib; first compound 0.004048 µM) | relative viability (17-AAG + Trametinib; first compound 0.0128 µM) | relative viability (17-AAG + Trametinib; first compound 0.04048 µM) | relative viability (17-AAG + Trametinib; first compound 0.128 µM) | relative viability (17-AAG + OSI-027; first compound 0.00128 µM) | relative viability (17-AAG + OSI-027; first compound 0.004048 µM) | relative viability (17-AAG + OSI-027; first compound 0.0128 µM) | relative viability (17-AAG + OSI-027; first compound 0.04048 µM) | relative viability (17-AAG + OSI-027; first compound 0.128 µM) | relative viability (17-AAG + Crizotinib; first compound 0.00128 µM) | relative viability (17-AAG + Crizotinib; first compound 0.004048 µM) | relative viability (17-AAG + Crizotinib; first compound 0.0128 µM) | relative viability (17-AAG + Crizotinib; first compound 0.04048 µM) | relative viability (17-AAG + Crizotinib; first compound 0.128 µM) | relative viability (17-AAG + Phenformin; first compound 0.00128 µM) | relative viability (17-AAG + Phenformin; first compound 0.004048 µM) | relative viability (17-AAG + Phenformin; first compound 0.0128 µM) | relative viability (17-AAG + Phenformin; first compound 0.04048 µM) | relative viability (17-AAG + Phenformin; first compound 0.128 µM) |
| --- | --- | --- | --- | --- | --- | --- | --- | --- | --- | --- | --- | --- | --- | --- | --- | --- | --- | --- | --- | --- |
| LXF-289 | 0.667 | 0.661 | 0.686 | 0.58 | 0.145 | 0.823 | 0.779 | 0.53 | 0.104 | 0.0657 | 0.789 | 0.783 | 0.73 | 0.572 | 0.163 | 0.544 | 0.511 | 0.189 | 0.0865 | 0.0697 |
| NCI-H23 | 0.336 | 0.344 | 0.246 | 0.148 | 0.116 | 0.623 | 0.646 | 0.365 | 0.179 | 0.121 | 0.426 | 0.5 | 0.403 | 0.155 | 0.123 | 0.665 | 0.769 | 0.575 | 0.319 | 0.155 |
| NCI-H322M | 0.512 | 0.547 | 0.452 | 0.536 | 0.403 | 0.465 | 0.364 | 0.329 | 0.285 | 0.271 | 0.811 | 0.92 | 0.979 | 0.65 | 0.442 | 0.77 | 0.808 | 0.311 | 0.28 | 0.303 |
| NCI-H358 | 0.128 | 0.0832 | 0.0659 | 0.0673 | 0.0679 | 0.768 | 0.41 | 0.0521 | 0.0586 | 0.0417 | 0.752 | 0.268 | 0.152 | 0.118 | 0.0862 | 0.321 | 0.155 | 0.0612 | 0.0774 | 0.0534 |
| NCI-H441 | 0.454 | 0.439 | 0.148 | 0.132 | 0.0927 | 0.581 | 0.429 | 0.203 | 0.19 | 0.137 | 0.804 | 0.707 | 0.462 | 0.292 | 0.0949 | 0.877 | 0.397 | 0.184 | 0.182 | 0.129 |
| NCI-H460 | 0.202 | 0.0484 | 0.0114 | 0.0258 | 0.0229 | 0.62 | 0.413 | 0.0464 | 0.0193 | 0.0168 | 0.685 | 0.521 | 0.0433 | 0.0161 | 0.013 | 0.468 | 0.332 | 0.0221 | 0.021 | 0.0236 |
| NCI-H520 | 0.706 | 0.673 | 0.468 | 0.154 | 0.129 | 0.305 | 0.268 | 0.27 | 0.202 | 0.152 | 0.924 | 0.663 | 0.492 | 0.112 | 0.0889 | 0.617 | 0.511 | 0.406 | 0.234 | 0.165 |
| NCI-H596 | 0.841 | 0.852 | 0.767 | 0.704 | 0.308 | 0.742 | 0.713 | 0.854 | 0.519 | 0.274 | 0.95 | 0.834 | 1.03 | 0.986 | 0.542 | 0.829 | 0.68 | 0.554 | 0.781 | 0.309 |
| NCI-H647 | 0.402 | 0.29 | 0.0765 | 0.0969 | 0.0756 | 0.585 | 0.553 | 0.187 | 0.0899 | 0.0977 | 1.11 | 0.755 | 0.101 | 0.0977 | 0.08 | 0.569 | 0.446 | 0.0903 | 0.103 | 0.103 |
| NCI-H650 | 0.983 | 1.03 | 0.934 | 0.551 | 0.224 | 0.502 | 0.602 | 0.494 | 0.426 | 0.258 | 0.759 | 0.685 | 0.6 | 0.476 | 0.134 | 0.445 | 0.459 | 0.421 | 0.308 | 0.228 |
| NCI-H661 | 0.588 | 0.533 | 0.522 | 0.295 | 0.23 | 0.713 | 0.672 | 0.636 | 0.261 | 0.21 | 1.13 | 1.02 | 0.947 | 0.841 | 0.532 | 0.304 | 0.293 | 0.293 | 0.256 | 0.188 |
| NCI-H727 | 0.356 | 0.409 | 0.319 | 0.237 | 0.221 | 0.602 | 0.573 | 0.506 | 0.359 | 0.24 | 0.968 | 0.74 | 0.586 | 0.191 | 0.188 | 0.535 | 0.445 | 0.475 | 0.287 | 0.277 |
| NCI-H838 | 0.536 | 0.487 | 0.126 | 0.115 | 0.1 | 0.408 | 0.369 | 0.246 | 0.147 | 0.124 | 0.748 | 0.729 | 0.259 | 0.118 | 0.112 | 0.543 | 0.327 | 0.118 | 0.132 | 0.0945 |
| NCI-H1355 | 0.466 | 0.446 | 0.363 | 0.241 | 0.167 | 0.44 | 0.467 | 0.272 | 0.185 | 0.166 | 1.03 | 1.1 | 1.1 | 0.93 | 0.287 | 0.492 | 0.457 | 0.388 | 0.186 | 0.165 |
| NCI-H1437 | 0.582 | 0.562 | 0.32 | 0.291 | 0.195 | 0.877 | 0.836 | 0.656 | 0.186 | 0.123 | 0.976 | 0.806 | 0.378 | 0.126 | 0.0903 | 0.312 | 0.316 | 0.179 | 0.153 | 0.129 |
| NCI-H1650 | 0.657 | 0.252 | 0.143 | 0.126 | 0.114 | 0.483 | 0.226 | 0.139 | 0.189 | 0.176 | 1.01 | 0.659 | 0.136 | 0.179 | 0.126 | 0.294 | 0.15 | 0.146 | 0.147 | 0.157 |
| NCI-H1651 | 0.781 | 0.855 | 0.838 | 0.77 | 0.604 | 0.749 | 0.685 | 0.683 | 0.395 | 0.143 | 0.828 | 0.82 | 0.828 | 0.827 | 0.571 | 0.335 | 0.548 | 0.242 | 0.151 | 0.107 |
| NCI-H1666 | 0.858 | 0.826 | 0.639 | 0.575 | 0.481 | 0.875 | 0.782 | 0.52 | 0.395 | 0.335 | 1.04 | 0.853 | 0.288 | 0.305 | 0.215 | 0.547 | 0.56 | 0.432 | 0.316 | 0.329 |
| NCI-H1734 | 0.759 | 0.633 | 0.576 | 0.245 | 0.15 | 0.602 | 0.709 | 0.415 | 0.263 | 0.144 | 0.647 | 0.681 | 0.646 | 0.195 | 0.142 | 0.371 | 0.368 | 0.305 | 0.142 | 0.118 |
| NCI-H1755 | 0.808 | 0.716 | 0.705 | 0.741 | 0.23 | 0.773 | 0.69 | 0.602 | 0.197 | 0.114 | 0.888 | 0.841 | 0.84 | 0.588 | 0.209 | 0.622 | 0.57 | 0.578 | 0.254 | 0.0941 |
| NCI-H1792 | 0.483 | 0.337 | 0.216 | 0.0858 | 0.056 | 0.691 | 0.765 | 0.619 | 0.574 | 0.273 | 0.997 | 1.02 | 0.897 | 0.848 | 0.19 | 0.338 | 0.216 | 0.066 | 0.0797 | 0.0405 |
| NCI-H1915 | 0.293 | 0.302 | 0.23 | 0.103 | 0.0681 | 0.606 | 0.605 | 0.482 | 0.088 | 0.0931 | 0.89 | 0.899 | 0.871 | 0.878 | 0.223 | 0.358 | 0.372 | 0.308 | 0.106 | 0.0928 |
| NCI-H1944 | 0.452 | 0.368 | 0.379 | 0.24 | 0.155 | 0.406 | 0.403 | 0.321 | 0.184 | 0.164 | 1.01 | 1.18 | 1.02 | 0.799 | 0.289 | 0.187 | 0.194 | 0.127 | 0.12 | 0.114 |
| NCI-H1975 | 0.319 | 0.358 | 0.207 | 0.124 | 0.147 | 0.654 | 0.446 | 0.133 | 0.147 | 0.115 | 0.951 | 0.825 | 0.218 | 0.163 | 0.126 | 0.385 | 0.287 | 0.204 | 0.13 | 0.0987 |
| NCI-H1993 | 0.61 | 0.464 | 0.49 | 0.313 | 0.387 | 0.586 | 0.636 | 0.593 | 0.394 | 0.41 | 0.932 | 0.969 | 0.899 | 0.537 | 0.403 | 0.507 | 0.451 | 0.472 | 0.397 | 0.404 |
| NCI-H2009 | 0.276 | 0.269 | 0.252 | 0.218 | 0.0853 | 0.635 | 0.654 | 0.618 | 0.376 | 0.0937 | 1.12 | 1.01 | 0.99 | 0.496 | 0.0881 | 0.499 | 0.43 | 0.481 | 0.412 | 0.128 |
